Test results reported in PubChem BioAssay (NCI).
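Growth conditions: 96-well plates. Treatment: test compound, 48 hours, 5 concentrations. Analysis: linear interpolation between bracketing concentrations; unreached endpoints set to highest concentration. TGI marks complete inhibition of growth.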

Tested on: HOP-62 NSCLC
Experiment: NCI anticancer screen, dose series, 48 h

| Structure (SMILES) | TGI [µM] |
| --- | --- |
| COc1cccc(C2c3cc4c(cc3OC(N3CCCC3)C2C)OCO4)c1 (centres undefined) | 19.8 |
| CN(C)/N=C(\CCN1CCCC1)CC(c1ccccc1)c1c(O)c2ccccc2oc1=O (centres undefined) | > 100 |
| O=P(c1ccccc1)(c1ccccc1)C(NCc1ccccc1)c1ccc(F)cc1 (centres undefined) | 42.6 |
| C1=C2C3=[N+](CCCC3)CC2Cc2ccsc21 (centres undefined) | > 100 |
| CC(=O)NCc1nc(C#N)c(N)o1 | > 100 |
| Clc1ccc2c(NCCCCN=Cc3ccccc3)ccnc2c1 | 23.7 |
| COc1cc2c(c(OC)c1OC)-c1ccc(SC)c(=O)cc1C(CC(=O)Oc1ccc([N+](=O)[O-])cc1)C2 (centres undefined) | > 100 |
| CC(=O)NC(CCCN)C(=O)NCc1ccccc1 (centres undefined) | > 100 |
| Cc1[nH]c(=O)[nH]c(=S)c1C(=O)NC(C)(CO)CO | > 100 |
| Cc1cc(O)c(/C=N/C(=S)NCCc2ccccc2)c(=O)o1 | > 100 |
| Cc1ccccc1Nc1cn(COCc2ccccc2)c(=O)[nH]c1=O | > 100 |
| COc1ccc(-c2c(C(C)=O)c(-c3ccccc3)n(C3OC(COC(C)=O)C(OC(C)=O)C(OC(C)=O)C3OC(C)=O)c(=S)c2C#N)cc1 (centres undefined) | > 100 |
| Cc1oc2nc(N(C)C)nc(Cl)c2c1C | > 100 |
| Cn1c(=O)c2c(nc(NCCCCl)n2CC(=O)NCCCCl)n(C)c1=O | > 100 |
| CCCCCCCCCCCCCCCCCc1cccc(OCOCCOC)c1CO | > 100 |
| CCOC(=O)Cn1sc2ncc([N+](=O)[O-])cc2c1=O | 30 |
| O=C1CCC(c2ccccc2)C(O)(C(=O)O)C1 (centres undefined) | > 100 |
| N#CCCN(CCC#N)c1ccc(C(=O)NN)cc1 | > 100 |
| NS(=O)(=O)c1nnc(NC(=O)c2ccccc2)s1 | > 100 |
| CC1=CC(=O)NP(=O)(Oc2ccc(C)cc2)N1 (centres undefined) | > 100 |
| CC(=O)OCC1OC(N2C(c3ccccc3)=CC(c3ccccc3)C(C#N)=C2S)C(OC(C)=O)C(OC(C)=O)C1OC(C)=O (centres undefined) | 17.9 |
| CC(=O)OC1CC2OC(Cc3ccccc32)O1 (centres undefined) | > 100 |
| C/C(=N\NC(=S)N1CC2CCC(CC2)C1)c1ccncn1 | 12.1 |
| COC(=O)CCC(=O)NC1c2cccc3cccc(c23)Cn2c(=O)n(C)c(=O)n21 (centres undefined) | > 100 |
| CCOC(=O)CC(NC(=O)c1nc[nH]c1[N+](=O)[O-])C(=O)OCC (centres undefined) | > 100 |

Tested on: HT29 colon
Experiment: NCI anticancer screen, dose series, 48 h

| Structure (SMILES) | TGI [µM] |
| --- | --- |
| Cc1cc(=O)[nH]c(NNC(C#N)c2ccc(O)cc2)n1 (centres undefined) | > 100 |
| COc1ccc(OC)c2c1C(=O)C(Cl)=C(N1CCN(CCOCCO)CC1)C2=O | 19.8 |
| O=C(CSc1nnc(Cc2ccccc2)o1)Nc1cccc([N+](=O)[O-])c1 | > 100 |
| COc1cccc(C2c3cc4c(cc3OC(N3CCCC3)C2C)OCO4)c1 (centres undefined) | 18.4 |
| CN(C)/N=C(\CCN1CCCC1)CC(c1ccccc1)c1c(O)c2ccccc2oc1=O (centres undefined) | > 100 |
| O=P(c1ccccc1)(c1ccccc1)C(NCc1ccccc1)c1ccc(F)cc1 (centres undefined) | 26.5 |
| C1=C2C3=[N+](CCCC3)CC2Cc2ccsc21 (centres undefined) | > 100 |
| CC(=O)NCc1nc(C#N)c(N)o1 | > 100 |
| Clc1ccc2c(NCCCCN=Cc3ccccc3)ccnc2c1 | 21.6 |
| COc1cc2c(c(OC)c1OC)-c1ccc(SC)c(=O)cc1C(CC(=O)Oc1ccc([N+](=O)[O-])cc1)C2 (centres undefined) | 0.099 |
| CC(=O)NC(CCCN)C(=O)NCc1ccccc1 (centres undefined) | > 100 |
| Cc1[nH]c(=O)[nH]c(=S)c1C(=O)NC(C)(CO)CO | > 100 |
| Cc1cc(O)c(/C=N/C(=S)NCCc2ccccc2)c(=O)o1 | > 100 |
| Cc1ccccc1Nc1cn(COCc2ccccc2)c(=O)[nH]c1=O | > 100 |
| COc1ccc(-c2c(C(C)=O)c(-c3ccccc3)n(C3OC(COC(C)=O)C(OC(C)=O)C(OC(C)=O)C3OC(C)=O)c(=S)c2C#N)cc1 (centres undefined) | > 100 |
| Cc1oc2nc(N(C)C)nc(Cl)c2c1C | > 100 |
| Cn1c(=O)c2c(nc(NCCCCl)n2CC(=O)NCCCCl)n(C)c1=O | > 100 |
| CCCCCCCCCCCCCCCCCc1cccc(OCOCCOC)c1CO | > 100 |
| CCOC(=O)Cn1sc2ncc([N+](=O)[O-])cc2c1=O | 29.8 |
| O=C1CCC(c2ccccc2)C(O)(C(=O)O)C1 (centres undefined) | > 100 |
| N#CCCN(CCC#N)c1ccc(C(=O)NN)cc1 | > 100 |
| CC1=CC(=O)NP(=O)(Oc2ccc(C)cc2)N1 (centres undefined) | > 100 |
| CC(=O)OCC1OC(N2C(c3ccccc3)=CC(c3ccccc3)C(C#N)=C2S)C(OC(C)=O)C(OC(C)=O)C1OC(C)=O (centres undefined) | > 82.5 |
| CC(=O)OC1CC2OC(Cc3ccccc32)O1 (centres undefined) | > 100 |
| C/C(=N\NC(=S)N1CC2CCC(CC2)C1)c1ccncn1 | 5.5 |
| COC(=O)CCC(=O)NC1c2cccc3cccc(c23)Cn2c(=O)n(C)c(=O)n21 (centres undefined) | > 100 |
| CCOC(=O)CC(NC(=O)c1nc[nH]c1[N+](=O)[O-])C(=O)OCC (centres undefined) | > 100 |
| N#[O+].O=S(=O)([O-])[O-].[NH2-].[NH2-].[NH2-].[NH2-].[NH2-].[Ru+5] | > 100 |

Tested on: LOX IMVI melanoma
Experiment: NCI anticancer screen, dose series, 48 h

| Structure (SMILES) | TGI [µM] |
| --- | --- |
| O=C1c2ccccc2S[C@@H](O)[C@@H]2CCCN12 | > 100 |
| Cc1cc(=O)[nH]c(NNC(C#N)c2ccc(O)cc2)n1 (centres undefined) | > 100 |
| O=C(CSc1nnc(Cc2ccccc2)o1)Nc1cccc([N+](=O)[O-])c1 | > 100 |
| COc1cccc(C2c3cc4c(cc3OC(N3CCCC3)C2C)OCO4)c1 (centres undefined) | 30.5 |
| CN(C)/N=C(\CCN1CCCC1)CC(c1ccccc1)c1c(O)c2ccccc2oc1=O (centres undefined) | > 100 |
| O=P(c1ccccc1)(c1ccccc1)C(NCc1ccccc1)c1ccc(F)cc1 (centres undefined) | 28 |
| C1=C2C3=[N+](CCCC3)CC2Cc2ccsc21 (centres undefined) | > 100 |
| CC(=O)NCc1nc(C#N)c(N)o1 | > 100 |
| Clc1ccc2c(NCCCCN=Cc3ccccc3)ccnc2c1 | > 100 |
| COc1cc2c(c(OC)c1OC)-c1ccc(SC)c(=O)cc1C(CC(=O)Oc1ccc([N+](=O)[O-])cc1)C2 (centres undefined) | 20.2 |
| CC(=O)NC(CCCN)C(=O)NCc1ccccc1 (centres undefined) | > 100 |
| Cc1[nH]c(=O)[nH]c(=S)c1C(=O)NC(C)(CO)CO | > 100 |
| Cc1cc(O)c(/C=N/C(=S)NCCc2ccccc2)c(=O)o1 | > 100 |
| Cc1ccccc1Nc1cn(COCc2ccccc2)c(=O)[nH]c1=O | > 100 |
| COc1ccc(-c2c(C(C)=O)c(-c3ccccc3)n(C3OC(COC(C)=O)C(OC(C)=O)C(OC(C)=O)C3OC(C)=O)c(=S)c2C#N)cc1 (centres undefined) | > 100 |
| Cn1c(=O)c2c(nc(NCCCCl)n2CC(=O)NCCCCl)n(C)c1=O | > 100 |
| CCOC(=O)Cn1sc2ncc([N+](=O)[O-])cc2c1=O | 26.4 |
| O=C1CCC(c2ccccc2)C(O)(C(=O)O)C1 (centres undefined) | > 100 |
| N#CCCN(CCC#N)c1ccc(C(=O)NN)cc1 | > 100 |
| NS(=O)(=O)c1nnc(NC(=O)c2ccccc2)s1 | > 100 |
| CC1=CC(=O)NP(=O)(Oc2ccc(C)cc2)N1 (centres undefined) | > 100 |
| CC(=O)OCC1OC(N2C(c3ccccc3)=CC(c3ccccc3)C(C#N)=C2S)C(OC(C)=O)C(OC(C)=O)C1OC(C)=O (centres undefined) | > 42.5 |
| CC(=O)OC1CC2OC(Cc3ccccc32)O1 (centres undefined) | > 100 |
| C/C(=N\NC(=S)N1CC2CCC(CC2)C1)c1ccncn1 | 3.1 |
| COC(=O)CCC(=O)NC1c2cccc3cccc(c23)Cn2c(=O)n(C)c(=O)n21 (centres undefined) | > 100 |
| CCOC(=O)CC(NC(=O)c1nc[nH]c1[N+](=O)[O-])C(=O)OCC (centres undefined) | > 100 |
| N#[O+].O=S(=O)([O-])[O-].[NH2-].[NH2-].[NH2-].[NH2-].[NH2-].[Ru+5] | > 100 |

Tested on: M14 melanoma
Experiment: NCI anticancer screen, dose series, 48 h

| Structure (SMILES) | TGI [µM] |
| --- | --- |
| O=C1c2ccccc2S[C@@H](O)[C@@H]2CCCN12 | > 100 |
| Cc1cc(=O)[nH]c(NNC(C#N)c2ccc(O)cc2)n1 (centres undefined) | > 100 |
| COc1ccc(OC)c2c1C(=O)C(Cl)=C(N1CCN(CCOCCO)CC1)C2=O | 31.7 |
| O=C(CSc1nnc(Cc2ccccc2)o1)Nc1cccc([N+](=O)[O-])c1 | > 100 |
| COc1cccc(C2c3cc4c(cc3OC(N3CCCC3)C2C)OCO4)c1 (centres undefined) | 21.1 |
| CN(C)/N=C(\CCN1CCCC1)CC(c1ccccc1)c1c(O)c2ccccc2oc1=O (centres undefined) | > 100 |
| O=P(c1ccccc1)(c1ccccc1)C(NCc1ccccc1)c1ccc(F)cc1 (centres undefined) | 27.8 |
| C1=C2C3=[N+](CCCC3)CC2Cc2ccsc21 (centres undefined) | > 100 |
| CC(=O)NCc1nc(C#N)c(N)o1 | > 100 |
| Clc1ccc2c(NCCCCN=Cc3ccccc3)ccnc2c1 | 27.4 |
| COc1cc2c(c(OC)c1OC)-c1ccc(SC)c(=O)cc1C(CC(=O)Oc1ccc([N+](=O)[O-])cc1)C2 (centres undefined) | 1.53 |
| CC(=O)NC(CCCN)C(=O)NCc1ccccc1 (centres undefined) | > 100 |
| Cc1[nH]c(=O)[nH]c(=S)c1C(=O)NC(C)(CO)CO | > 100 |
| Cc1cc(O)c(/C=N/C(=S)NCCc2ccccc2)c(=O)o1 | > 100 |
| Cc1ccccc1Nc1cn(COCc2ccccc2)c(=O)[nH]c1=O | > 100 |
| COc1ccc(-c2c(C(C)=O)c(-c3ccccc3)n(C3OC(COC(C)=O)C(OC(C)=O)C(OC(C)=O)C3OC(C)=O)c(=S)c2C#N)cc1 (centres undefined) | > 100 |
| Cc1oc2nc(N(C)C)nc(Cl)c2c1C | > 100 |
| Cn1c(=O)c2c(nc(NCCCCl)n2CC(=O)NCCCCl)n(C)c1=O | > 100 |
| CCCCCCCCCCCCCCCCCc1cccc(OCOCCOC)c1CO | > 100 |
| O=C1CCC(c2ccccc2)C(O)(C(=O)O)C1 (centres undefined) | > 100 |
| N#CCCN(CCC#N)c1ccc(C(=O)NN)cc1 | > 100 |
| NS(=O)(=O)c1nnc(NC(=O)c2ccccc2)s1 | > 100 |
| CC1=CC(=O)NP(=O)(Oc2ccc(C)cc2)N1 (centres undefined) | > 100 |
| CC(=O)OCC1OC(N2C(c3ccccc3)=CC(c3ccccc3)C(C#N)=C2S)C(OC(C)=O)C(OC(C)=O)C1OC(C)=O (centres undefined) | 74 |
| CC(=O)OC1CC2OC(Cc3ccccc32)O1 (centres undefined) | > 100 |
| C/C(=N\NC(=S)N1CC2CCC(CC2)C1)c1ccncn1 | 2.36 |
| COC(=O)CCC(=O)NC1c2cccc3cccc(c23)Cn2c(=O)n(C)c(=O)n21 (centres undefined) | > 100 |
| CCOC(=O)CC(NC(=O)c1nc[nH]c1[N+](=O)[O-])C(=O)OCC (centres undefined) | > 100 |

Tested on: MDA-N
Experiment: NCI anticancer screen, dose series, 48 h

| Structure (SMILES) | TGI [µM] |
| --- | --- |
| O=P(c1ccccc1)(c1ccccc1)C(NCc1ccccc1)c1ccc(F)cc1 (centres undefined) | 33.1 |
| C1=C2C3=[N+](CCCC3)CC2Cc2ccsc21 (centres undefined) | > 100 |
| CC(=O)NCc1nc(C#N)c(N)o1 | > 100 |
| Clc1ccc2c(NCCCCN=Cc3ccccc3)ccnc2c1 | 23.9 |
| Cc1[nH]c(=O)[nH]c(=S)c1C(=O)NC(C)(CO)CO | > 100 |
| Cc1cc(O)c(/C=N/C(=S)NCCc2ccccc2)c(=O)o1 | > 100 |
